What was measured:
[1] = test system: B/Malaysia/2506/2004 (B-Mal); format: cell-based, influenza virus
A/Hamburg/05/2009 (H1N1) = format: cell-based, influenza virus
[2] = test system: Pseudomonas aeruginosa DSM 50071; assay: Antibacterial growth assay (OD600); settings: OD600, medium = 100, MH II broth, 37 °C, peptide 200 µM mixed 50 µL + 50 µL with bacteria, Figure 7: 48 h; for Bacterial growth relative to medium, P. aeruginosa (50071), replicate 1: replicate column 1; for Bacterial growth relative to medium, P. aeruginosa (50071), replicate 2: replicate column 2; for Bacterial growth relative to medium, P. aeruginosa (50071), replicate 3: replicate column 3
[3] = test system: Listeria monocytogenes DSM 20600; assay: Antibacterial growth assay (OD600); settings: for Antibacterial activity (in words): L. monocytogenes DSM 20600, growth after 48 h; for Bacterial growth relative to medium, L. monocytogenes, replicate 1 / Bacterial growth relative to medium, L. monocytogenes, replicate 2 / Bacterial growth relative to medium, L. monocytogenes, replicate 3: OD600, medium = 100, MH II broth, 37 °C, peptide 200 µM mixed 50 µL + 50 µL with bacteria, Figure 7: 48 h; for Bacterial growth relative to medium, L. monocytogenes, replicate 1: replicate column 1; for Bacterial growth relative to medium, L. monocytogenes, replicate 2: replicate column 2; for Bacterial growth relative to medium, L. monocytogenes, replicate 3: replicate column 3
Procedure: (§1) Cryo-conserved cultures of selected bacterial strains (Table 4) were transferred to Tryptic Soy Agar (TSA) plates (Carl Roth) with a sterile inoculation loop, sealed with Parafilm (BEMIS, Neenah, WI, USA), and incubated for 1–2 days at 37 °C depending on growth. Single colonies were picked and transferred into 2–3 mL of the Mueller–Hinton II (MH II) broth (BD, Heidelberg, Germany). The bacteria were cultivated overnight, subcultured on fresh medium and grown for 3–4 h before testing at 37 °C, with shaking at 180 rpm. We measured the optical density at 600 nm (OD600) of 1 mL of the bacterial suspensions in polystyrene cuvettes (SARSTED, Nümbrecht, Germany) using an Ultrospec 10 spectrophotometer (Biochrome, Cambridge, UK). We then diluted them with the MH II medium to the preferred OD600 (Table 2). The peptides were dissolved in DMSO to generate 10 mmol/L stocks and diluted with the MH II medium to 200 µM before the assay. We used 10 µg/mL (~40 µg/mL for S. epidermidis) gentamicin and colistin (Sigma-Aldrich, Taufkirchen, Germany), DMSO and the medium only as controls. The bacteria were transferred to 96-multiwell plates with a final volume of 100 µL per well (50 µL bacterial suspension, and 50 µL test peptide). The OD600 was measured at 0, 24 and 48 h using a BioTek Eon microplate reader followed by analysis with Gen5 v2.09.

[4] = test system: panel of seven bacterial strains; assay: Antibacterial growth assay (OD600), statements on the whole panel; format: cell-based; settings: growth after 48 h
[5] = test system: Escherichia coli BL21(DE3); assay: Antibacterial growth assay (OD600); settings: for Bacterial growth relative to medium, E. coli, replicate 1 / Bacterial growth relative to medium, E. coli, replicate 2 / Bacterial growth relative to medium, E. coli, replicate 3: OD600, medium = 100, MH II broth, 37 °C, peptide 200 µM mixed 50 µL + 50 µL with bacteria, Figure 7: 48 h; for Bacterial growth relative to medium, E. coli, replicate 1: replicate column 1; for Bacterial growth relative to medium, E. coli, replicate 2: replicate column 2; for Bacterial growth relative to medium, E. coli, replicate 3: replicate column 3
Procedure: as §1

[6] = test system: Staphylococcus aureus DSM 2569; assay: Antibacterial growth assay (OD600); settings: for Bacterial growth relative to medium, S. aureus, replicate 1 / Bacterial growth relative to medium, S. aureus, replicate 2 / Bacterial growth relative to medium, S. aureus, replicate 3: OD600, medium = 100, MH II broth, 37 °C, peptide 200 µM mixed 50 µL + 50 µL with bacteria, Figure 7: 48 h; for Bacterial growth relative to medium, S. aureus, replicate 1: replicate column 1; for Bacterial growth relative to medium, S. aureus, replicate 2: replicate column 2; for Bacterial growth relative to medium, S. aureus, replicate 3: replicate column 3
A/Hessen/1/2003 (H3N2) = format: cell-based, influenza virus
[7] = test system: Pseudomonas aeruginosa DSM 1117; assay: Antibacterial growth assay (OD600); settings: for Bacterial growth relative to medium, P. aeruginosa (1117), replicate 1 / Bacterial growth relative to medium, P. aeruginosa (1117), replicate 2 / Bacterial growth relative to medium, P. aeruginosa (1117), replicate 3: OD600, medium = 100, MH II broth, 37 °C, peptide 200 µM mixed 50 µL + 50 µL with bacteria, Figure 7: 48 h; for Bacterial growth relative to medium, P. aeruginosa (1117), replicate 1: replicate column 1; for Bacterial growth relative to medium, P. aeruginosa (1117), replicate 2: replicate column 2; for Bacterial growth relative to medium, P. aeruginosa (1117), replicate 3: replicate column 3
[8] = test system: Micrococcus luteus DSM 20030; assay: Antibacterial growth assay (OD600); settings: for Bacterial growth relative to medium, M. luteus, replicate 1 / Bacterial growth relative to medium, M. luteus, replicate 2 / Bacterial growth relative to medium, M. luteus, replicate 3: OD600, medium = 100, MH II broth, 37 °C, peptide 200 µM mixed 50 µL + 50 µL with bacteria, Figure 7: 48 h; for Bacterial growth relative to medium, M. luteus, replicate 1: replicate column 1; for Bacterial growth relative to medium, M. luteus, replicate 2: replicate column 2; for Bacterial growth relative to medium, M. luteus, replicate 3: replicate column 3
[9] = test system: Staphylococcus epidermidis DSM 28319; assay: Antibacterial growth assay (OD600); settings: for Bacterial growth relative to medium, S. epidermidis, replicate 1 / Bacterial growth relative to medium, S. epidermidis, replicate 2 / Bacterial growth relative to medium, S. epidermidis, replicate 3: OD600, medium = 100, MH II broth, 37 °C, peptide 200 µM mixed 50 µL + 50 µL with bacteria, Figure 7: 48 h; for Bacterial growth relative to medium, S. epidermidis, replicate 1: replicate column 1; for Bacterial growth relative to medium, S. epidermidis, replicate 2: replicate column 2; for Bacterial growth relative to medium, S. epidermidis, replicate 3: replicate column 3

Sequence	Viability of infected cells relative to aprotinin, Replicate 1 [1]	Viability of infected cells relative to aprotinin, Replicate 2 [1]	Viability of infected cells relative to aprotinin, Replicate 3 [1]	Viability of infected cells relative to aprotinin, Replicate 1 (A/Hamburg/05/2009 (H1N1))	Viability of infected cells relative to aprotinin, Replicate 2 (A/Hamburg/05/2009 (H1N1))	Viability of infected cells relative to aprotinin, Replicate 3 (A/Hamburg/05/2009 (H1N1))	Bacterial growth relative to medium, P. aeruginosa (50071), replicate 1 [2]	Bacterial growth relative to medium, P. aeruginosa (50071), replicate 2 [2]	Bacterial growth relative to medium, P. aeruginosa (50071), replicate 3 [2]	Bacterial growth relative to medium, L. monocytogenes, replicate 1 [3]	Bacterial growth relative to medium, L. monocytogenes, replicate 2 [3]	Bacterial growth relative to medium, L. monocytogenes, replicate 3 [3]	Antibacterial activity over the panel (in words) [4]	Bacterial growth relative to medium, E. coli, replicate 1 [5]	Bacterial growth relative to medium, E. coli, replicate 2 [5]	Bacterial growth relative to medium, E. coli, replicate 3 [5]	Bacterial growth relative to medium, S. aureus, replicate 1 [6]	Bacterial growth relative to medium, S. aureus, replicate 2 [6]	Bacterial growth relative to medium, S. aureus, replicate 3 [6]	Viability of infected cells relative to aprotinin, Replicate 1 (A/Hessen/1/2003 (H3N2))	also measured
SLLGLLDVVKNTVGQTG [LS-AMP-A9]	0.09007	0.06966	0.05846	0.04771	0.03968	0.02362	97.5053	110.589	87.613	56.5719	67.4623	66.1408	inhibited the growth of most of the bacteria except two	70.1329	70.7996	35.5653	57.4133	67.8221	95.0991	0.1782	Antibacterial activity (in words) [3]: able to decrease the growth; Antibacterial activity (in words) ([5]; E. coli BL21(DE3), growth after 48 h): able to decrease the growth; Antibacterial activity (in words) ([6]; S. aureus DSM 2569, growth after 48 h): able to decrease the growth; Viability of infected cells relative to aprotinin, Replicate 2 (A/Hessen/1/2003 (H3N2)): 0.2232; Viability of infected cells relative to aprotinin, Replicate 3 (A/Hessen/1/2003 (H3N2)): 0.05605; Bacterial growth relative to medium, P. aeruginosa (1117), replicate 1 [7]: 56.3665; Bacterial growth relative to medium, P. aeruginosa (1117), replicate 2 [7]: 70.6926; Bacterial growth relative to medium, P. aeruginosa (1117), replicate 3 [7]: 77.8728; Antibacterial activity (in words) ([8]; M. luteus DSM 20030, growth after 48 h): able to decrease the growth; Bacterial growth relative to medium, M. luteus, replicate 1 [8]: 52.4959; Bacterial growth relative to medium, M. luteus, replicate 2 [8]: 91.4416; Bacterial growth relative to medium, M. luteus, replicate 3 [8]: 32.7594; Bacterial growth relative to medium, S. epidermidis, replicate 1 [9]: 52.3672; Bacterial growth relative to medium, S. epidermidis, replicate 2 [9]: 52.2824; Bacterial growth relative to medium, S. epidermidis, replicate 3 [9]: 65.3172; Antibacterial activity (in words) ([9]; S. epidermidis DSM 28319, growth after 48 h): able to decrease the growth
SLFGLLDLVKSKVGQTGLL [LS-AMP-A1]	0.04827	0.03878	0.05872	0.03121	0.03837	0.04316	100.105	111.979	89.7927	93.4804	90.3626	102.296	limited activity	153.553	169.757	114.343	106.033	110.791	108.193	0.185	Viability of infected cells relative to aprotinin, Replicate 2 (A/Hessen/1/2003 (H3N2)): 0.1781; Viability of infected cells relative to aprotinin, Replicate 3 (A/Hessen/1/2003 (H3N2)): 0.1313; Bacterial growth relative to medium, P. aeruginosa (1117), replicate 1 [7]: 79.0357; Bacterial growth relative to medium, P. aeruginosa (1117), replicate 2 [7]: 70.5187; Bacterial growth relative to medium, P. aeruginosa (1117), replicate 3 [7]: 73.1051; Bacterial growth relative to medium, M. luteus, replicate 1 [8]: 73.9935; Bacterial growth relative to medium, M. luteus, replicate 2 [8]: 135.023; Bacterial growth relative to medium, M. luteus, replicate 3 [8]: 50.2152; Bacterial growth relative to medium, S. epidermidis, replicate 1 [9]: 132.924; Bacterial growth relative to medium, S. epidermidis, replicate 2 [9]: 152.819; Bacterial growth relative to medium, S. epidermidis, replicate 3 [9]: 103.22
SLLGLLDVVKNKVGQIGLL [LS-AMP-A3]	0.05676	0.05168	0.08362	0.0465	0.03476	0.04494	100.315	112.866	88.8092	59.9369	117.418	68.2929	limited activity	114.847	118.887	89.3889	77.3106	83.4859	97.1568	0.1081	Antibacterial activity (in words) [3]: less effective; Viability of infected cells relative to aprotinin, Replicate 2 (A/Hessen/1/2003 (H3N2)): 0.01008; Viability of infected cells relative to aprotinin, Replicate 3 (A/Hessen/1/2003 (H3N2)): 0.02318; Bacterial growth relative to medium, P. aeruginosa (1117), replicate 1 [7]: 63.3724; Bacterial growth relative to medium, P. aeruginosa (1117), replicate 2 [7]: 74.5214; Bacterial growth relative to medium, P. aeruginosa (1117), replicate 3 [7]: 66.198; Antibacterial activity (in words) ([7]; P. aeruginosa DSM 1117, growth after 48 h): less effective; Bacterial growth relative to medium, M. luteus, replicate 1 [8]: 106.28; Bacterial growth relative to medium, M. luteus, replicate 2 [8]: 132.545; Bacterial growth relative to medium, M. luteus, replicate 3 [8]: 67.7188; Bacterial growth relative to medium, S. epidermidis, replicate 1 [9]: 125.081; Bacterial growth relative to medium, S. epidermidis, replicate 2 [9]: 166.552; Bacterial growth relative to medium, S. epidermidis, replicate 3 [9]: 95.4096

— paper PMC10221074, “Functional Profiling of the A-Family of Venom Peptides from the Wolf Spider Lycosa shansia” (Toxins, 2023)
